Legend:
[1] = Cmax in Sprague-Dawley rat measured at 100 mg/kg, po for 1 to 24 hrs by HPLC-MS/MS analysis; type: ADME, organism-based; conditions: in vivo, time 1-24 hrs
[2] = AUC (0 to infinity) in CD-1 mouse measured at 5 mg/kg, iv for 1 to 24 hrs by HPLC-MS/MS analysis; type: ADME, organism-based; conditions: in vivo, time 1-24 hrs
[3] = Toxicity in athymic nu/nu CD-1 mouse allografted with mouse 3T3 cells expressing human IGF-1R assessed as loss in body weight at 75 mg/kg, po for 12 days relative to control; type: organism-based, NIH3T3; conditions: in vivo, 288 h, time 12 day
[4] = AUC last in Sprague-Dawley rat measured at 100 mg/kg, po for 1 to 24 hrs by HPLC-MS/MS analysis; type: ADME, organism-based; conditions: in vivo, time 1-24 hrs
Cytochrome P450 1A2 = biological target: T1, Cytochrome P450 1A2 (Homo sapiens, UniProt P05177); assay: Inhibition of CYP1A2 (unknown origin) in presence of NADPH generating system incubated for 20 mins by luminescent method; type: ADME
T1 sequence (P05177 whole entry): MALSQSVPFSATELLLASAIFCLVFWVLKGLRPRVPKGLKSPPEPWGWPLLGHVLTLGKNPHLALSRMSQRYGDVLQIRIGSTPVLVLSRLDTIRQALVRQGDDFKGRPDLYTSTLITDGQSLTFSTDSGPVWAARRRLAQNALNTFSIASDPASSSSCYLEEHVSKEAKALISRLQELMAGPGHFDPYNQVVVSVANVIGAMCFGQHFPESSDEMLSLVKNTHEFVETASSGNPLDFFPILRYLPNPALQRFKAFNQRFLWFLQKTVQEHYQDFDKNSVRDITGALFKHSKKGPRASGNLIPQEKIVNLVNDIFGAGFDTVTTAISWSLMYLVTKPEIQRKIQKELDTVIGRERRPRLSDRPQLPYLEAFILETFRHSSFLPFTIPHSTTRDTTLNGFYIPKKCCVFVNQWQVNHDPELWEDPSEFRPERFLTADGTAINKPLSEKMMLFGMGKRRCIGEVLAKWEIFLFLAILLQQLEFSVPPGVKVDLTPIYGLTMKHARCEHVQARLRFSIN

[5] = Toxicity in athymic nu/nu CD-1 mouse allografted with mouse 3T3 cells expressing human IGF-1R assessed as loss in body weight at 25 mg/kg, po for 12 days relative to control; type: organism-based, NIH3T3; conditions: in vivo, 288 h, time 12 day
[6] = Cmax in CD-1 mouse measured at 75 mg/kg, po for 1 to 24 hrs by HPLC-MS/MS analysis; type: ADME, organism-based; conditions: in vivo, time 1-24 hrs
NIH3T3 = assay: Antitumor activity against mouse 3T3 cells allografted in athymic nu/nu CD-1 mouse assessed as tumor growth inhibition at 75 mg/kg, po for 12 days relative to control; type: functional; conditions: NIH3T3, 288 h, time 12 day, read-out: TGI
[7] = Volume of distribution at steady state in CD-1 mouse measured at 5 mg/kg, iv for 1 to 24 hrs by HPLC-MS/MS analysis; type: ADME, organism-based; conditions: in vivo, time 1-24 hrs, read-out: Vdss

Cmax [1]: 34.6 µM
AUC(0-inf) [2]: 6.95 µg·h/mL
AUC(0-t) [4]: 424 µg·h/mL
IC50 (Cytochrome P450 1A2): > 10 µM
Cmax [6]: 16.8 µM
Vd [7]: 2.05 L/kg
SMILES: C[C@]1(O)C[C@@H](c2nc(-c3ccc4ccc(-c5ccccc5)nc4c3)c3c(N)nccn32)C1 [LINSITINIB]
Activity [3]: 16%
Activity [5]: < 10%
inhibition in vivo at 75 mg/kg (NIH3T3): 100%
